± gives the expanded uncertainty stated by the source.
Assay: xn = mol fraction of the nth substance listed
Details: Liquid, Vibrating tube method

COc1cc2c(cc1O)CC1c3c(cc(O)c(OC)c3-2)CCN1C (stereo not given) [boldine] + CCCO
Details | mass density [kg/m3]
343 K, 1000 kPa, x1 = 0.0018 | 765.31 ± 0.95
343 K, 2000 kPa, x1 = 0.0018 | 766.28 ± 0.94
343 K, 3000 kPa, x1 = 0.0018 | 767.25 ± 0.94
343 K, 4000 kPa, x1 = 0.0018 | 768.23 ± 0.94
343 K, 5000 kPa, x1 = 0.0018 | 769.21 ± 0.93
343 K, 6000 kPa, x1 = 0.0018 | 770.18 ± 0.94
343 K, 7000 kPa, x1 = 0.0018 | 771.15 ± 0.94
343 K, 8000 kPa, x1 = 0.0018 | 772.11 ± 0.94
343 K, 9000 kPa, x1 = 0.0018 | 773.07 ± 0.94
343 K, 10000 kPa, x1 = 0.0018 | 774.02 ± 0.94
343 K, 11000 kPa, x1 = 0.0018 | 774.96 ± 0.94
343 K, 12000 kPa, x1 = 0.0018 | 775.89 ± 0.95
343 K, 13000 kPa, x1 = 0.0018 | 776.81 ± 0.95
343 K, 14000 kPa, x1 = 0.0018 | 777.73 ± 0.95
343 K, 15000 kPa, x1 = 0.0018 | 778.63 ± 0.95
343 K, 16000 kPa, x1 = 0.0018 | 779.51 ± 0.95
343 K, 17000 kPa, x1 = 0.0018 | 780.4 ± 0.95
343 K, 18000 kPa, x1 = 0.0018 | 781.25 ± 0.95
343 K, 19000 kPa, x1 = 0.0018 | 782.1 ± 0.96
343 K, 20000 kPa, x1 = 0.0018 | 782.93 ± 0.96
343.01 K, 1000 kPa, x1 = 0.0077 | 775.45 ± 0.66
343.01 K, 1000 kPa, x1 = 0.0142 | 786.8 ± 0.63
343.01 K, 2000 kPa, x1 = 0.0077 | 776.42 ± 0.66
343.01 K, 2000 kPa, x1 = 0.0142 | 787.75 ± 0.64
343.01 K, 3000 kPa, x1 = 0.0077 | 777.38 ± 0.66
343.01 K, 3000 kPa, x1 = 0.0142 | 788.7 ± 0.64
343.01 K, 4000 kPa, x1 = 0.0077 | 778.34 ± 0.66
343.01 K, 4000 kPa, x1 = 0.0142 | 789.64 ± 0.64
343.01 K, 5000 kPa, x1 = 0.0077 | 779.31 ± 0.67
343.01 K, 5000 kPa, x1 = 0.0142 | 790.58 ± 0.65
343.01 K, 6000 kPa, x1 = 0.0077 | 780.26 ± 0.67
343.01 K, 6000 kPa, x1 = 0.0142 | 791.54 ± 0.65
343.01 K, 7000 kPa, x1 = 0.0077 | 781.23 ± 0.67
343.01 K, 7000 kPa, x1 = 0.0142 | 792.46 ± 0.65
343.01 K, 8000 kPa, x1 = 0.0077 | 782.18 ± 0.68
343.01 K, 8000 kPa, x1 = 0.0142 | 793.4 ± 0.66
343.01 K, 9000 kPa, x1 = 0.0077 | 783.12 ± 0.68
343.01 K, 9000 kPa, x1 = 0.0142 | 794.32 ± 0.66
343.01 K, 10000 kPa, x1 = 0.0077 | 784.05 ± 0.68
343.01 K, 10000 kPa, x1 = 0.0142 | 795.24 ± 0.66
343.01 K, 11000 kPa, x1 = 0.0077 | 784.98 ± 0.69
343.01 K, 11000 kPa, x1 = 0.0142 | 796.17 ± 0.66
343.01 K, 12000 kPa, x1 = 0.0077 | 785.91 ± 0.69
343.01 K, 12000 kPa, x1 = 0.0142 | 797.07 ± 0.67
343.01 K, 13000 kPa, x1 = 0.0077 | 786.82 ± 0.69
343.01 K, 13000 kPa, x1 = 0.0142 | 797.96 ± 0.67
343.01 K, 14000 kPa, x1 = 0.0077 | 787.72 ± 0.7
343.01 K, 14000 kPa, x1 = 0.0142 | 798.86 ± 0.67
343.01 K, 15000 kPa, x1 = 0.0077 | 788.61 ± 0.7
343.01 K, 15000 kPa, x1 = 0.0142 | 799.72 ± 0.68
343.01 K, 16000 kPa, x1 = 0.0077 | 789.48 ± 0.7
343.01 K, 16000 kPa, x1 = 0.0142 | 800.59 ± 0.68
343.01 K, 17000 kPa, x1 = 0.0077 | 790.35 ± 0.71
343.01 K, 17000 kPa, x1 = 0.0142 | 801.44 ± 0.68
343.01 K, 18000 kPa, x1 = 0.0077 | 791.2 ± 0.71
343.01 K, 18000 kPa, x1 = 0.0142 | 802.3 ± 0.69
343.01 K, 19000 kPa, x1 = 0.0077 | 792.04 ± 0.71
343.01 K, 19000 kPa, x1 = 0.0142 | 803.11 ± 0.69
343.01 K, 20000 kPa, x1 = 0.0077 | 792.86 ± 0.72
343.01 K, 20000 kPa, x1 = 0.0142 | 803.92 ± 0.69
343.02 K, 1000 kPa, x1 = 0.0112 | 782.08 ± 0.72
343.02 K, 2000 kPa, x1 = 0.0112 | 783.03 ± 0.72
343.02 K, 3000 kPa, x1 = 0.0112 | 783.98 ± 0.72
343.02 K, 4000 kPa, x1 = 0.0112 | 784.93 ± 0.73
343.02 K, 5000 kPa, x1 = 0.0112 | 785.88 ± 0.73
343.02 K, 6000 kPa, x1 = 0.0112 | 786.83 ± 0.73
343.02 K, 7000 kPa, x1 = 0.0112 | 787.77 ± 0.73
343.02 K, 8000 kPa, x1 = 0.0112 | 788.71 ± 0.73
343.02 K, 9000 kPa, x1 = 0.0112 | 789.64 ± 0.73
343.02 K, 10000 kPa, x1 = 0.0112 | 790.57 ± 0.74
343.02 K, 11000 kPa, x1 = 0.0112 | 791.49 ± 0.74
343.02 K, 12000 kPa, x1 = 0.0112 | 792.4 ± 0.74
343.02 K, 13000 kPa, x1 = 0.0112 | 793.29 ± 0.74
343.02 K, 14000 kPa, x1 = 0.0112 | 794.19 ± 0.75
343.02 K, 15000 kPa, x1 = 0.0112 | 795.06 ± 0.75
343.02 K, 16000 kPa, x1 = 0.0112 | 795.93 ± 0.75
343.02 K, 17000 kPa, x1 = 0.0112 | 796.79 ± 0.76
343.02 K, 18000 kPa, x1 = 0.0112 | 797.62 ± 0.76
343.02 K, 19000 kPa, x1 = 0.0112 | 798.46 ± 0.76
343.02 K, 20000 kPa, x1 = 0.0112 | 799.28 ± 0.76
343.04 K, 1000 kPa, x1 = 0.0046 | 771.67 ± 0.7
343.04 K, 2000 kPa, x1 = 0.0046 | 772.63 ± 0.7
343.04 K, 3000 kPa, x1 = 0.0046 | 773.6 ± 0.71
343.04 K, 4000 kPa, x1 = 0.0046 | 774.56 ± 0.71
343.04 K, 5000 kPa, x1 = 0.0046 | 775.44 ± 0.71
343.04 K, 6000 kPa, x1 = 0.0046 | 776.45 ± 0.71
343.04 K, 7000 kPa, x1 = 0.0046 | 777.41 ± 0.72
343.04 K, 8000 kPa, x1 = 0.0046 | 778.35 ± 0.72
343.04 K, 9000 kPa, x1 = 0.0046 | 779.29 ± 0.72
343.04 K, 10000 kPa, x1 = 0.0046 | 780.23 ± 0.72
343.04 K, 11000 kPa, x1 = 0.0046 | 781.16 ± 0.73
343.04 K, 12000 kPa, x1 = 0.0046 | 782.09 ± 0.73
343.04 K, 13000 kPa, x1 = 0.0046 | 782.98 ± 0.73
343.04 K, 14000 kPa, x1 = 0.0046 | 783.89 ± 0.74
343.04 K, 15000 kPa, x1 = 0.0046 | 784.78 ± 0.74
343.04 K, 16000 kPa, x1 = 0.0046 | 785.65 ± 0.74
343.04 K, 17000 kPa, x1 = 0.0046 | 786.52 ± 0.75
343.04 K, 18000 kPa, x1 = 0.0046 | 787.37 ± 0.75
343.04 K, 19000 kPa, x1 = 0.0046 | 788.26 ± 0.75
343.04 K, 20000 kPa, x1 = 0.0046 | 789.03 ± 0.76
352.94 K, 1000 kPa, x1 = 0.0018 | 756.19 ± 0.93
352.94 K, 1000 kPa, x1 = 0.0112 | 772.97 ± 0.72
352.94 K, 1000 kPa, x1 = 0.0142 | 777.66 ± 0.63
352.94 K, 2000 kPa, x1 = 0.0018 | 757.24 ± 0.92
352.94 K, 2000 kPa, x1 = 0.0112 | 774.02 ± 0.72
352.94 K, 2000 kPa, x1 = 0.0142 | 778.69 ± 0.64
352.94 K, 3000 kPa, x1 = 0.0018 | 758.3 ± 0.93
352.94 K, 3000 kPa, x1 = 0.0112 | 775.24 ± 0.72
352.94 K, 3000 kPa, x1 = 0.0142 | 779.72 ± 0.62
352.94 K, 4000 kPa, x1 = 0.0018 | 759.35 ± 0.93
352.94 K, 4000 kPa, x1 = 0.0112 | 776.07 ± 0.72
352.94 K, 4000 kPa, x1 = 0.0142 | 780.73 ± 0.64
352.94 K, 5000 kPa, x1 = 0.0018 | 760.39 ± 0.93
352.94 K, 5000 kPa, x1 = 0.0112 | 777.15 ± 0.72
352.94 K, 5000 kPa, x1 = 0.0142 | 781.74 ± 0.64
352.94 K, 6000 kPa, x1 = 0.0018 | 761.42 ± 0.93
352.94 K, 6000 kPa, x1 = 0.0112 | 778.1 ± 0.73
352.94 K, 6000 kPa, x1 = 0.0142 | 782.74 ± 0.65
352.94 K, 7000 kPa, x1 = 0.0018 | 762.46 ± 0.93
352.94 K, 7000 kPa, x1 = 0.0112 | 779.1 ± 0.73
352.94 K, 7000 kPa, x1 = 0.0142 | 783.74 ± 0.65
352.94 K, 8000 kPa, x1 = 0.0018 | 763.48 ± 0.93
352.94 K, 8000 kPa, x1 = 0.0112 | 780.11 ± 0.73
352.94 K, 8000 kPa, x1 = 0.0142 | 784.73 ± 0.65
352.94 K, 9000 kPa, x1 = 0.0018 | 764.5 ± 0.93
352.94 K, 9000 kPa, x1 = 0.0112 | 781.09 ± 0.73
352.94 K, 9000 kPa, x1 = 0.0142 | 785.73 ± 0.66
352.94 K, 10000 kPa, x1 = 0.0018 | 765.51 ± 0.93
352.94 K, 10000 kPa, x1 = 0.0112 | 782.07 ± 0.74
352.94 K, 10000 kPa, x1 = 0.0142 | 786.7 ± 0.66
352.94 K, 11000 kPa, x1 = 0.0018 | 766.51 ± 0.93
352.94 K, 11000 kPa, x1 = 0.0112 | 783.04 ± 0.74
352.94 K, 11000 kPa, x1 = 0.0142 | 787.66 ± 0.66
352.94 K, 12000 kPa, x1 = 0.0018 | 767.49 ± 0.94
352.94 K, 12000 kPa, x1 = 0.0112 | 784.02 ± 0.74
352.94 K, 12000 kPa, x1 = 0.0142 | 788.61 ± 0.67
352.94 K, 13000 kPa, x1 = 0.0018 | 768.45 ± 0.94
352.94 K, 13000 kPa, x1 = 0.0112 | 784.98 ± 0.74
352.94 K, 13000 kPa, x1 = 0.0142 | 789.57 ± 0.67
352.94 K, 14000 kPa, x1 = 0.0018 | 769.42 ± 0.94
352.94 K, 14000 kPa, x1 = 0.0112 | 785.8 ± 0.75
352.94 K, 14000 kPa, x1 = 0.0142 | 790.48 ± 0.68
352.94 K, 15000 kPa, x1 = 0.0018 | 770.37 ± 0.95
352.94 K, 15000 kPa, x1 = 0.0112 | 786.85 ± 0.75
352.94 K, 15000 kPa, x1 = 0.0142 | 791.41 ± 0.67
352.94 K, 16000 kPa, x1 = 0.0018 | 771.31 ± 0.95
352.94 K, 16000 kPa, x1 = 0.0112 | 787.79 ± 0.75
352.94 K, 16000 kPa, x1 = 0.0142 | 792.32 ± 0.67
352.94 K, 17000 kPa, x1 = 0.0018 | 772.22 ± 0.95
352.94 K, 17000 kPa, x1 = 0.0112 | 788.61 ± 0.76

From the NIST ThermoML archive (doi:10.1016/j.jct.2012.03.003)
